{"source": "patent US10260043B2", "about": "“Human extensively self-renewing erythroblasts (ESRE)” (UNIVERSITY OF ROCHESTER, priority 2013, dated 2019)", "test_system": "murine ESREs", "assay": "murine ESRE self-renewal supported by glucocorticoid", "type": "cell-based, mouse", "details": "as effectively as 10^−6M dexamethasone; preliminary studies", "excerpt": "Other reagents necessary for improving the efficiency with which self-renewing cultures can be derived from human ESCs can be tested. This includes alternate steroids, such as fluticasone proprionate, an extremely potent glucocorticoid agent; our preliminary studies of murine ESREs indicate that doses of fluticasone as low as 10^−9M support erythroblast self-renewal as effectively as 10^−6M dexamethasone. Various lipid additives, including Excyte (Millipore) and Human LDL (Stem Cell Technology) can also be test for to optimizing support human erythroblast self-renewal."}
{"substance": "fluticasone proprionate", "values": [{"measurement": "dose that supports erythroblast self-renewal", "value": "≤ 10^−9 M"}]}
